Holding throughout (type): in vivo
Test [1] has as its system potted pepper (Capsicum sp.) plants. Nature of the test: Transpiration reduction in pepper plants grown in a growth chamber. To be noted: compared to control plants. The protocol: In the following example, a treatment group of potted pepper (Capsicum sp.) plants is sprayed once each evening with an aqueous “treatment solution” of 10 ppm sodium hydrosulfide (NaHS) in distilled water, buffered with phosphate, to a pH of 7.4. The control group of plants is sprayed once each evening with an equivalent amount of “control solution” consisting of distilled water buffered with phosphate to a pH of 7.4. Potted pepper plants are grown in a temperature controlled growth-chamber under metal halide lamps. Average temperature in the growth chamber is about 20° C., and relative humidity is about 60%. Pots contain a greenhouse mix peat soil enriched with slow release fertilizer. Environmental conditions (light, temperature, and relative humidity) inside the growth chamber are monitored every 30 minutes during the experiment using standard environmental sensors such as a pyranometer, thermocouple psychrometer, relative humidity sensor and a datalogger. […]
The treatment solution of aqueous sodium hydrosulfide (NaHS) is sprayed once each night onto the top surface and bottom surface of leaves as described in Example 1 using a simple hand sprayer. The control group receives the same quantity of water alone which is sprayed each night onto the leaves in the same fashion as the treated group. […]

The test system of test [2] is corn (Zea Maize). Description: Water used to irrigate corn grown under field conditions. To be noted: end of growing season; compared to non-treated control corn. The text has this:
In the following example, a treatment group of corn (Zea Maize) is sprayed once each evening with an aqueous “treatment solution” of 10 ppm sodium hydrosulfide (NaHS) in distilled water, buffered with phosphate, to a pH of 7.4. The control group of plants is sprayed once each evening with an equivalent amount of “control solution” consisting of distilled water buffered with phosphate to a pH of 7.4. An experimental plot may be setup with 8 repetitions to obtain statistically independent results. The treatment (aqueous NaHS) and control (water alone) plots may be set up following a randomized scheme. […]
Water Use Measurements. […] This allows the measurement of water used in every single plot such that evaluation of water use differences between the water-alone control crops and NaHS treated crops can be monitored. The system is installed in such a way that every plant may receive a given amount of water determined by using constant rate water applicators. […] Soil water content (SWC) is measured continuously, using a Time Domain Reflectometer sensor installed in each of the twenty-four rows. […] The sensors are monitored by a datalogger (model 23X, Campbell Scientific Inc., Logan, Utah). The probes may be 30 cm long, and can be buried vertically, such that average volumetric water content of the top 30 cm of the soil is measured. […] The soil water content may be measured every 60 seconds. […]

In test [3] the test system is dwarf sunflower (Helianthus annuus L.) plants. Description: Stomata conductance and transpiration in greenhouse-grown plants. Particulars: foliar application of aqueous 10 ppm NaHS, pH 7.4, once per evening for one week; compared to control plants. The text has this: In the following example, a treatment group of dwarf sunflower (Helianthus annuus L.) plants is sprayed once each evening with an aqueous “treatment solution” of 10 ppm sodium hydrosulfide (NaHS) in distilled water, buffered with phosphate, to a pH of 7.4. The control group of plants is sprayed once each evening with an equivalent amount of “control solution” consisting of distilled water buffered with phosphate to a pH of 7.4. The treatment and control groups each include seven plants. The dwarf sunflower plants are grown from seed in 20-cm diameter plastic pots. Each pot contains one plant growing in a peat, sand mixture. […]
Stomata conductance is measured with a steady state porometer (LiCor model LI-1600, LiCor Inc., Lincoln, Nebr.). Measurements are made on the abaxial leaf surfaces where the majority of stomata are located and are recorded after the treated group and the control group are sprayed once per evening for one week.
The transpiration rate is determined by calculating the vapor pressure at the evaporating surface (leaf) and the air vapor pressure. The saturated vapor pressure of the leaf is calculated by measuring leaf temperature. Leaf temperature is measured using an external thermocouple as well as the LICor porometer. […] Relative humidity is determined using a sling psychrometer. […] Averages for 7 plants of each group are calculated and plotted.

As to `S` [NaHS, sodium hydrosulfide], the transpiration result in test [1] (optimally watered plants sprayed each night with 10 ppm NaHS) is “reduction in transpiration”. For the same molecule, the cumulative water use result in test [1] (water stress conditions, sprayed each night with 10 ppm NaHS) was “cumulative water use in control plants is consistently higher”. Besides, the “biomass production (total dry matter)” value in test [2] was “higher biomass production”. Besides, the stomata conductance result in test [3] was “decrease in stomata conductance”.

(Values after US9609810B2, “Methods for modulating photosynthetic activity” (priority 2012, dated 2017).)
